Results reported in US20200138764A1, “METHODS AND DEVICES FOR ACTIVATING ADIPOSE TISSUE” (The Procter & Gamble Company, priority 2018, published 2020).

Experiments:
adipocyte = assay: In vivo browning study in lean mice: Fat % by image analysis of H&E stained tissue; set-up: species or system Mice (C57BJ/6); conditions: mice, SC injection, Formula III one side and mirabegron other side; high and middle dosage merged; H&E images
Experimental: (§1) Mice (8-10 weeks old males C57BJ/6 strain) were obtained from a commercial vendor Charles River Laboratories. The animal study protocols were approved by the Institutional Animal Care and Use Committee, at the Procter & Gamble Company. Mice were acclimated to the facility for 14 days prior to initiating the study. From arrival, mice were housed in solid-bottom shoebox styled cages within room temperature of 22±2° C. with ad libitum access to water and regular rodent chow diet on a 12 h light/dark cycle. Mice were single housed and offered bedding and various enrichment options. The bedding and nesting material allowed the mice to thermoregulate to their desired level of comfort. Body weights were recorded at the beginning of the study, on each dosing day prior to dosing, and final weights were recorded at the end of the study. Overall food consumption, fecal output, and body appearance were monitored during cage side clinical observations but were not scientifically measured or tracked. During the dosing period, the animals were observed several times per day (for example, before and during injection, immediately to 30-min post injection, a few hours after injection, and end of work day).
[…] The injection was performed using a 25-27-gauge ½-⅝″ length needle via a subcutaneous (SC) injection near or into the inguinal fat pad region of the lower abdomen. Dosing was done twice a week injections over 3 weeks. Necropsy was done at week 4. […]
Segments of adipocyte and inter-cellular regions in a stained image were identified by Python […] package. […] The threshold between adipocyte and inter-cellular regions in a converted image was detected by the Otsu filter function of the […]. The detected value was adjusted by multiplying 1.1.
The ratio of adipocyte in an image was calculated from the pixel number of the segments—Adipocyte Pixel was divided by Total Pixel.
The significance of the difference in Adipocyte Ratio between treatment and control groups was assessed by the Negative Binomial Generalized Linear Mixed-Effects Model using glmer.nb function of R lme4 package. […]

fat tissue = assay: qPCR biomarker analysis of fat tissue, in vivo; set-up: species or system Mice (C57BJ/6); conditions: mouse fat tissue, SC injection twice a week over 3 weeks
Experimental: as §1
Three groups of animals were treated with mirabegron (i.e. positive control) (n=4), placebo (n=2) and Formula III (n=6) on the left side while the right side received placebo in all three groups. The injection was performed using a 25-27-gauge ½-⅝″ length needle via a subcutaneous (SC) injection near or into the inguinal fat pad region of the lower abdomen. Dosing was done twice a week injections over 3 weeks. Necropsy was done at week 4. Test materials were administered at room temperature and in a neutral pH range. Three days after last dosing animals were euthanized with CO2 inhalation, inguinal fat pads were harvested, and tissues were processed for histology and biomarker analysis.
The qPCR biomarker analysis was conducted from flash frozen fat tissue from mouse study described above. First, RNA was manually extracted with RNAdvance Tissue kit (Agencourt). RNA was extracted from flash frozen fat tissue according to manufactuer's directions. For example, 5 mm steel beads were placed in the freezer for approximately 15-20 minutes. Next, Qiagen Buffer RLT was cooled to 4° C. for 20 minutes and placed in a 96 well 1.5 mL tube rack for sample transfer. Isopropanol was added to Agencourt wash buffer. 100 mL aliquots of 70% ethanol in water were prepared. The RNA Tissue beads were allowed to warm to 22° C. (˜30 minutes), and then the beads were shaken vigorously and intermittently for at least 15-20 minutes. 1 stainless steel bead was added to a 2 mL round bottom tube stored on dry ice. The tissue sample was then transferred to the 2 mL round bottom tube.
The tube rack was placed on wet ice. Then, the tubes were transferred from dry ice to the rack in wet ice and 350 μL of cold buffer RLT were added to the tubes. The beads were beaten at 30 Hz for 2 minutes. After bead beating, samples were centrifuged for 2 minutes. The supernatant was transferred into 96 well deep well isolation plate.
80 μL of RNATissue beads were combined with 320 μL of isopropanol to create a Bind Buffer. This solution was prepared fresh for each isolation with any unused solution discarded.
400 μL of Bind Buffer was added to the to RLT mixture and slowly mixed. The solution was incubated at room temperature for 10 minutes. Special care was taken to avoid the formation of bubbles while tip mixing.
The mixture was placed on a magnet (96 well plate—Agencourt SPRIPlate) for 6-10 minutes. After the solution became clear, the supernatant was removed from each tube while the tubes remained on the magnet and the solution was discarded.
The tubes were removed from the magnet and the pellets were washed with 800 μL of the Isopropanol Wash Buffer ten times. […]

Nc1nc(CC(=O)Nc2ccc(CCNC[C@H](O)c3ccccc3)cc2)cs1 [Mirabegron, mirabegron]
Average Fat % (Adipocyte Pixel / Total Pixel) (adipocyte): 94.43%
Average Fold vs Placebo: AdipoQ (fat tissue): 13.7
Average Fold vs Placebo: Adrb3 (fat tissue): 16.3
Average Fold vs Placebo: Cidea (fat tissue): 39.7
Average Fold vs Placebo: Cox7a1 (fat tissue): 27.8
Average Fold vs Placebo: Cox8b (fat tissue): 38.6
Average Fold vs Placebo: Dio2 (fat tissue): 8.3
Average Fold vs Placebo: Elovl3 (fat tissue): 19.1
Average Fold vs Placebo: IL6 (fat tissue): 3.3
Average Fold vs Placebo: Ppargc1 (fat tissue): 12.0
Average Fold vs Placebo: Prdm16 (fat tissue): 5.0
Average Fold vs Placebo: Tfap2a (fat tissue): 15.2
Average Fold vs Placebo: UCP1 (fat tissue): 170.3
